Key:
[1] = test system: SMN2 minigene mRNA (SMN2-A minigene) in HEK293H cells; assay: SMN2 minigene mRNA splicing RT-qPCR assay in cultured cells; assay type: cell-based, human; details: Homo sapiens, HEK293-H; concentration increasing full length SMN2 mRNA 1.5-fold relative to vehicle-treated cells; HEK293H cells with SMN2-A minigene, 24 hours, 7-point concentration data; read-out: EC1.5x for production of full length SMN2 mRNA
Outline: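 HEK293H cells stably carrying the SMN2-A minigene were treated for 24 h at 37 °C with a 7-point, 3.16-fold dilution series of compound. Multiplex RT-qPCR measured exon 7-containing minigene FL mRNA against GAPDH, expressed relative to vehicle by modified ΔΔCt; the EC1.5× is the concentration giving a 1.5-fold increase.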

[2] = test system: Smn protein in SMA patient fibroblast cells (GM03813); assay: Smn protein assay in cultured cells (SMN HTRF); assay type: cell-based, human; details: SMA patient fibroblast cells, 48 hours; for EC1.5x for Smn protein expression: 7-point concentration curve, SMN HTRF, concentration producing 1.5 times Smn protein vs DMSO vehicle control; for maximum fold (Fold) increase of Smn protein: 7-point concentration data, fold relative to vehicle control
Outline: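 SMA patient fibroblasts (5,000 cells/well, DMEM-10% FBS) were treated for 48 h at 37 °C with a 7-point, 3.16-fold dilution series in triplicate. RIPA lysates were probed by HTRF (anti-SMN d2/kryptate, overnight, room temperature), reading 665/620 nm. EC1.5× is the concentration giving 1.5-fold Smn over DMSO vehicle.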

SMILES	EC (1.5-fold increase) [1] [µM]	EC1.5x for Smn protein expression [2]	maximum fold (Fold) increase of Smn protein [2]	melting point [°C]
CNC1CCN(c2cc(C)c3nc(-c4cc5c(C)nc(C)cn5n4)cc(=O)n3c2)CC1 [Compound 610, 2-(4,6-dimethylpyrazolo[1,5-a]pyrazin-2-yl)-9-methyl-7-[4-(methylamino)piperidin-1-yl]-4H-pyrido[1,2-a]pyrimidin-4-one]	< 0.1	**** (an EC1.5x≤0.3 μM is indicated by four stars (****))	***** (a fold increase >1.65 is indicated by five stars (*****))	218 to 227
Cc1cn2nc(-c3cc(=O)n4cc(N5CCC(NC(C)C)CC5)cc(C)c4n3)cc2c(C)n1 [Compound 611, 2-(4,6-dimethylpyrazolo[1,5-a]pyrazin-2-yl)-9-methyl-7-[4-(propan-2-ylamino)piperidin-1-yl]-4H-pyrido[1,2-a]pyrimidin-4-one]	0.3 to 1	–	*** (a fold increase between >1.35 and ≤1.5 is indicated by three stars (***))	215 to 225
CCN1CCC(c2ccc3nc(-c4ccc5nn(C)cc5c4)cc(=O)n3c2)CC1 [Compound 612, 7-(1-ethylpiperidin-4-yl)-2-(2-methyl-2H-indazol-5-yl)-4H-pyrido[1,2-a]pyrimidin-4-one]	< 0.1	**** (an EC1.5x≤0.3 μM is indicated by four stars (****))	***** (a fold increase >1.65 is indicated by five stars (*****))	202 to 204
Cn1cc2cc(-c3cc(=O)n4cc(C5CCN(CCO)CC5)ccc4n3)ccc2n1 [Compound 613, 7-[1-(2-hydroxyethyl)piperidin-4-yl]-2-(2-methyl-2H-indazol-5-yl)-4H-pyrido[1,2-a]pyrimidin-4-one]	< 0.1	**** (an EC1.5x≤0.3 μM is indicated by four stars (****))	***** (a fold increase >1.65 is indicated by five stars (*****))	170 to 172
Cc1cn2cc(-c3cc(=O)n4cc(C5CCN(C)CC5)ccc4n3)cc(C)c2n1 [Compound 614, 2-(2,8-dimethylimidazo[1,2-a]pyridin-6-yl)-7-(1-methylpiperidin-4-yl)-4H-pyrido[1,2-a]pyrimidin-4-one]	< 0.1	**** (an EC1.5x≤0.3 μM is indicated by four stars (****))	***** (a fold increase >1.65 is indicated by five stars (*****))	200 to 202
CCN1CCC(c2ccc3nc(-c4cc(C)c5nc(C)cn5c4)cc(=O)n3c2)CC1 [Compound 615, 2-(2,8-dimethylimidazo[1,2-a]pyridin-6-yl)-7-(1-ethylpiperidin-4-yl)-4H-pyrido[1,2-a]pyrimidin-4-one]	< 0.1	**** (an EC1.5x≤0.3 μM is indicated by four stars (****))	**** (a fold increase between >1.5 and ≤1.65 is indicated by four stars (****))	202 to 204
Cc1cn2cc(-c3cc(=O)n4cc(C5CCN(C(C)C)CC5)ccc4n3)cc(C)c2n1 [Compound 616, 2-(2,8-dimethylimidazo[1,2-a]pyridin-6-yl)-7-[1-(propan-2-yl)piperidin-4-yl]-4H-pyrido[1,2-a]pyrimidin-4-one]	< 0.1	**** (an EC1.5x≤0.3 μM is indicated by four stars (****))	***** (a fold increase >1.65 is indicated by five stars (*****))	242 to 244
CCCN1CCN(c2ccc3nc(-c4cc5c(CC)nc(C)cn5n4)cc(=O)n3c2)CC1 [Compound 618, 2-(4-ethyl-6-methylpyrazolo[1,5-a]pyrazin-2-yl)-7-(4-propylpiperazin-1-yl)-4H-pyrido[1,2-a]pyrimidin-4-one]	< 0.1	**** (an EC1.5x≤0.3 μM is indicated by four stars (****))	***** (a fold increase >1.65 is indicated by five stars (*****))	243 to 245
CCc1nc(C)cn2nc(-c3cc(=O)n4cc(N5CCN(C(C)C)CC5)ccc4n3)cc12 [Compound 619, 2-(4-ethyl-6-methylpyrazolo[1,5-a]pyrazin-2-yl)-7-[4-(propan-2-yl)piperazin-1-yl]-4H-pyrido[1,2-a]pyrimidin-4-one]	0.1 to 0.3	*** (an EC1.5× between >0.3 μM and ≤1 μM is indicated by three stars (***))	***** (a fold increase >1.65 is indicated by five stars (*****))	255 to 258
CCc1nc(C)cn2nc(-c3cc(=O)n4cc(N5CCN(C6CC6)CC5)ccc4n3)cc12 [Compound 620, 7-(4-cyclopropylpiperazin-1-yl)-2-(4-ethyl-6-methylpyrazolo[1,5-a]pyrazin-2-yl)-4H-pyrido[1,2-a]pyrimidin-4-one]	0.3 to 1	** (an EC1.5× between >1 μM and ≤3 μM is indicated by two stars (**))	*** (a fold increase between >1.35 and ≤1.5 is indicated by three stars (***))	258 to 260
CCc1nc(C)cn2nc(-c3cc(=O)n4cc(N5CCN(C6CCC6)CC5)ccc4n3)cc12 [Compound 621, 7-(4-cyclobutylpiperazin-1-yl)-2-(4-ethyl-6-methylpyrazolo[1,5-a]pyrazin-2-yl)-4H-pyrido[1,2-a]pyrimidin-4-one]	0.3 to 1	**** (an EC1.5x≤0.3 μM is indicated by four stars (****))	***** (a fold increase >1.65 is indicated by five stars (*****))	275 to 278
CCc1nc(C)cn2nc(-c3cc(=O)n4cc(N5CCN(C6COC6)CC5)ccc4n3)cc12 [Compound 622, 2-(4-ethyl-6-methylpyrazolo[1,5-a]pyrazin-2-yl)-7-[4-(oxetan-3-yl)piperazin-1-yl]-4H-pyrido[1,2-a]pyrimidin-4-one]	1 to 3	** (an EC1.5× between >1 μM and ≤3 μM is indicated by two stars (**))	**** (a fold increase between >1.5 and ≤1.65 is indicated by four stars (****))	205 to 208
CCN1CCC2CN(c3ccc4nc(-c5cc6c(C)nc(C)cn6n5)cc(=O)n4c3)CCC21 (stereo not shown) [Compound 623, 2-(4,6-dimethylpyrazolo[1,5-a]pyrazin-2-yl)-7-(1-ethyloctahydro-5H-pyrrolo[3,2-c]pyridin-5-yl)-4H-pyrido[1,2-a]pyrimidin-4-one]	< 0.1	**** (an EC1.5x≤0.3 μM is indicated by four stars (****))	***** (a fold increase >1.65 is indicated by five stars (*****))	176 to 178
Cc1cn2nc(-c3cc(=O)n4cc(N5CCC6C(CCN6CCO)C5)ccc4n3)cc2c(C)n1 (stereo not shown) [Compound 624, 2-(4,6-dimethylpyrazolo[1,5-a]pyrazin-2-yl)-7-[1-(2-hydroxyethyl)octahydro-5H-pyrrolo[3,2-c]pyridin-5-yl]-4H-pyrido[1,2-a]pyrimidin-4-one]	< 0.1	**** (an EC1.5x≤0.3 μM is indicated by four stars (****))	***** (a fold increase >1.65 is indicated by five stars (*****))	184 to 187
Cc1cn2cc(-c3cc(=O)n4cc(C5CCN(C(C)C)CC5)ncc4n3)ccc2n1 [Compound 627, 2-(2-methylimidazo[1,2-a]pyridin-6-yl)-7-[1-(propan-2-yl)piperidin-4-yl]-4H-pyrazino[1,2-a]pyrimidin-4-one]	0.1 to 0.3	** (an EC1.5× between >1 μM and ≤3 μM is indicated by two stars (**))	**** (a fold increase between >1.5 and ≤1.65 is indicated by four stars (****))	229 to 231
Cc1cn2cc(-c3cc(=O)n4cc(C5CCN(C6CCC6)CC5)ncc4n3)ccc2n1 [Compound 628, 7-(1-cyclobutylpiperidin-4-yl)-2-(2-methylimidazo[1,2-a]pyridin-6-yl)-4H-pyrazino[1,2-a]pyrimidin-4-one]	0.3 to 1	* (An EC1.5× for Smn protein expression between >3 μM and ≤10 μM is indicated by one star (*))	**** (a fold increase between >1.5 and ≤1.65 is indicated by four stars (****))	249 to 251
CCc1nc(C)cn2nc(-c3cc(=O)n4cc(N5CCN(CC)[C@H](C)C5)ccc4n3)cc12 [Compound 630, 7-[(3R)-4-ethyl-3-methylpiperazin-1-yl]-2-(4-ethyl-6-methylpyrazolo[1,5-a]pyrazin-2-yl)-4H-pyrido[1,2-a]pyrimidin-4-one]	< 0.1	**** (an EC1.5x≤0.3 μM is indicated by four stars (****))	***** (a fold increase >1.65 is indicated by five stars (*****))	256 to 258
